The supplement of paper PMC10307832

compound: COc1cc([C@@H]2c3cc4c(cc3[C@@H](O[C@@H]3O[C@@H]5CO[C@@H](C)O[C@H]5[C@H](O)[C@H]3O)[C@H]3COC(=O)[C@H]23)OCO4)cc(OC)c1O [Etoposide] + N=C(N)NC(=N)NCCc1ccccc1 [Phenformin] (partner 250 µM); experiment: relative viability (nuclei count vs DMSO), 5 days (fraction); higher = more cells survive; conditions: first compound 1 µM
Summary of the method: (§1)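 Lung cancer cell lines in 1536-well plates were dosed by pin tool the day after seeding, either with one drug alone or with a fixed anchor-drug dose plus five library-drug doses (not always all listed) in √10 steps. After 5 days, cells were fixed and their nuclei stained in one step (final 0.05% Triton X-100, 1% formaldehyde, 1 ug/ml Hoechst), then counted on 4× images. Relative viability is the nuclei count in treated wells divided by that in vehicle wells. Values are medians of duplicate plates.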

In order of falling relative viability:
1. NCI-H1563  0.476
2. LOU-NH91  0.404
3. NCI-H2170  0.348
4. ChaGo-K-1  0.169
5. A549  0.0368

compound: CC1=C(N=C(N=C1N)[C@H](CC(=O)N)NC[C@@H](C(=O)N)N)C(=O)N[C@@H]([C@H](C2=CN=CN2)OC3C(C(C(C(O3)CO)O)O)OC4C(C(C(C(O4)CO)O)OC(=O)N)O)C(=O)N[C@H](C)[C@H]([C@H](C)C(=O)N[C@@H]([C@@H](C)O)C(=O)NCCC5=NC(=CS5)C6=NC(=CS6)C(=O)NCCC[S+](C)C)O [Bleomycin] + CC(=O)c1c(C)c2cnc(Nc3ccc(N4CCNCC4)cn3)nc2n(C2CCCC2)c1=O [Palbociclib] (partner 0.5 µM); experiment: as above; conditions: first compound 0.01 µM; main component drawn
Summary of the method: as §1

In order of rising relative viability:
1. COR-L23  0.184
2. NCI-H647  0.189
3. HCC-366  0.19
4. PC-14  0.193
5. NCI-H1650  0.215
6. NCI-H1648  0.217
7. NCI-H838  0.22
8. NCI-H2087  0.222
9. SK-MES-1  0.313
10. H3255  0.324
11. NCI-H2170  0.328
12. NCI-H2126  0.338
13. EMC-BAC-2  0.378
14. COR-L 105  0.389
15. NCI-H2085  0.443
16. LK-2  0.45
17. LOU-NH91  0.476
18. LCLC-103H  0.501
19. NCI-H2342  0.553
20. NCI-H1993  0.579
21. NCI-H1666  0.599
22. NCI-H2228  0.719
23. ChaGo-K-1  0.847
24. NCI-H522  0.904

same assay, conditions: first compound 0.03162 µM; main component drawn

In order of rising relative viability:
1. HCC-366  0.155
2. NCI-H838  0.173
3. PC-14  0.174
4. NCI-H647  0.207
5. NCI-H1650  0.222
6. NCI-H2087  0.236
7. COR-L23  0.237
8. LK-2  0.299
9. SK-MES-1  0.306
10. NCI-H1648  0.32
11. H3255  0.324
12. NCI-H2170  0.342
13. COR-L 105  0.37
14. NCI-H2126  0.384
15. EMC-BAC-2  0.433
16. LOU-NH91  0.449
17. NCI-H2085  0.455
18. NCI-H1993  0.525
19. LCLC-103H  0.525
20. NCI-H2342  0.546
21. NCI-H1666  0.655
22. NCI-H2228  0.683
23. NCI-H522  0.829
24. ChaGo-K-1  0.831

same assay, conditions: first compound 0.1 µM; main component drawn

In order of falling relative viability:
1. ChaGo-K-1  0.862
2. NCI-H522  0.76
3. NCI-H1666  0.594
4. LCLC-103H  0.547
5. NCI-H1993  0.535
6. NCI-H2342  0.519
7. NCI-H2228  0.465
8. COR-L 105  0.435
9. NCI-H2085  0.432
10. LOU-NH91  0.428
11. LK-2  0.418
12. EMC-BAC-2  0.414
13. SK-MES-1  0.329
14. NCI-H2170  0.307
15. NCI-H2126  0.298
16. H3255  0.283
17. NCI-H1648  0.27
18. NCI-H2087  0.221
19. NCI-H838  0.169
20. NCI-H1650  0.153
21. COR-L23  0.151
22. NCI-H647  0.138
23. PC-14  0.127
24. HCC-366  0.106

same assay, conditions: first compound 0.3162 µM; main component drawn

In order of falling relative viability:
1. NCI-H1666  0.578
2. ChaGo-K-1  0.512
3. NCI-H2342  0.488
4. NCI-H1993  0.451
5. NCI-H2228  0.411
6. COR-L 105  0.392
7. NCI-H522  0.386
8. LCLC-103H  0.373
9. LOU-NH91  0.35
10. EMC-BAC-2  0.333
11. NCI-H2126  0.33
12. NCI-H2085  0.324
13. H3255  0.312
14. NCI-H2170  0.274
15. NCI-H1648  0.27
16. SK-MES-1  0.254
17. NCI-H1650  0.176
18. NCI-H838  0.153
19. LK-2  0.15
20. NCI-H647  0.119
21. NCI-H2087  0.118
22. COR-L23  0.115
23. HCC-366  0.0548
24. PC-14  0.0449

same assay, conditions: first compound 1 µM; main component drawn

In order of falling relative viability:
1. NCI-H1666  0.572
2. NCI-H2342  0.433
3. LCLC-103H  0.43
4. NCI-H522  0.4
5. COR-L 105  0.395
6. ChaGo-K-1  0.386
7. LOU-NH91  0.364
8. NCI-H2085  0.355
9. NCI-H1993  0.329
10. NCI-H2126  0.319
11. EMC-BAC-2  0.293
12. H3255  0.279
13. NCI-H2170  0.259
14. NCI-H1648  0.245
15. NCI-H2228  0.226
16. SK-MES-1  0.204
17. NCI-H1650  0.191
18. NCI-H2087  0.147
19. LK-2  0.134
20. NCI-H838  0.129
21. COR-L23  0.0887
22. NCI-H647  0.0651
23. PC-14  0.0437
24. HCC-366  0.0409

compound: CC1=C(N=C(N=C1N)[C@H](CC(=O)N)NC[C@@H](C(=O)N)N)C(=O)N[C@@H]([C@H](C2=CN=CN2)OC3C(C(C(C(O3)CO)O)O)OC4C(C(C(C(O4)CO)O)OC(=O)N)O)C(=O)N[C@H](C)[C@H]([C@H](C)C(=O)N[C@@H]([C@@H](C)O)C(=O)NCCC5=NC(=CS5)C6=NC(=CS6)C(=O)NCCC[S+](C)C)O [Bleomycin] + COc1cccc2cc(-c3nc([C@H]4CC[C@H](C(=O)O)CC4)n4ncnc(N)c34)[nH]c12 [OSI-027] (partner 0.5 µM); experiment: as above; conditions: first compound 0.01 µM; main component drawn
Summary of the method: as §1

In order of falling relative viability:
1. NCI-H522  0.662
2. NCI-H1993  0.541
3. NCI-H1650  0.468
4. PC-14  0.439
5. NCI-H1623  0.406
6. NCI-H838  0.347
